The values below come from ChEMBL document CHEMBL1201862, “PubChem BioAssay data set” (2004).

The structures appear in SMILES notation.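 1) Cells in 96-well plates. 2) Compound, 48 h, 5 concentrations. 3) Linear interpolation between surrounding doses. 4) Unreached endpoint = highest concentration. GI50 is the concentration that inhibits growth by half.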 Activity calls are given as the source filed them. No stated cut-off is given here; in the data, active = GI50 up to about 1.1 µM and inactive = higher.

Experiment in all cases: growth of human tumour cells (NCI), 48 h
In assay [1] the test system is NCI/ADR-RES.
In assay [2] the test system is NCI-H522.
Assay [3] deals with Malme-3M.
Assay [4] relates to T47D.
For assay [5], the system named is SK-MEL-5.
Assay [6] has as its system HOP-92.
The test system of assay [7] is MDA-MB-435.
For assay [8], the system named is BT-549.
Assay [9] relates to MDA-MB-231.
In assay [10] the test system is KM12.
The test system of assay [11] is MDA-N.
For assay [12], the system named is SW-620.
The subject of assay [13] is PC-3.
The subject of assay [14] is EKVX.
In assay [15] the test system is SR.
The subject of assay [16] is Hs-578T.
The test system of assay [17] is HCC 2998.

For `N=C(N)NCC(N)C(=O)O` (centres undefined), the GI50 in [1], in [2], in assay [3], in assay [4], in [5] and in assay [6] was > 100 µM (inactive) throughout. The GI50 in assay [7], in assay [8], in [9], in assay [10], in assay [11] and in [12] was > 100 µM (inactive) each time. Further, the GI50 in [13], in assay [14], in assay [15] and in assay [16] was > 100 µM (inactive) throughout.
With `CC(C)CNc1nc2ncnc(N)c2[nH]1`, the GI50 in [1] was > 100 µM (inactive); in assay [2], > 100 µM (inactive); in assay [3], > 100 µM (inactive); in assay [4] it was > 100 µM (inactive); in [5] it was > 100 µM (inactive); in [6], 56.8 µM (inactive). For the same molecule, the GI50 in assay [7], in assay [8], in assay [17], in assay [9], in assay [10] and in [11] was > 100 µM (inactive) each time. Moreover, the GI50 in assay [12], in assay [13], in [14] and in assay [16] was > 100 µM (inactive) each time.
Consider `O=C1c2ccccc2C2(c3ccc(Cl)cc3)N[C@H]3CCCC[C@@H]3N12` (some centres undefined), for which the GI50 in assay [1] was 63 µM (inactive); in assay [4], > 100 µM (inactive); in assay [5], > 100 µM (inactive); in assay [6], > 100 µM (inactive); in assay [7], > 100 µM (inactive); in assay [8], > 100 µM (inactive). Besides, the GI50 in [9] was > 100 µM (inactive); in [10], 85.5 µM (inactive); in assay [11] it was > 100 µM (inactive); in assay [12], > 100 µM (inactive); in assay [13] it was > 100 µM (inactive); in [14] it was 78.3 µM (inactive). Also, the values for the GI50 in assay [15] and in [16] were 43.6 µM (inactive) and 59.2 µM (inactive), respectively.
In the case of `COc1ccc2c(Cc3c4ccccc4cc4ccccc34)cncc2c1O`, the GI50 in [1] is 0.67 µM (active); in assay [2] it was 0.698 µM (active); in assay [3], 5.86 µM (inactive); in assay [4], 17.2 µM (inactive); in [5], 0.658 µM (active); in assay [6], 1.81 µM (inactive). For the same molecule, the GI50 in assay [7] was 0.239 µM (active); in assay [8], 5.69 µM (inactive); in assay [9], 2.51 µM (inactive); in assay [10], 1.93 µM (inactive); in assay [11], 0.404 µM (active); in [12], 0.857 µM (active). The GI50 was 5.14 µM (inactive) in [13], 8.22 µM (inactive) in [14], 0.21 µM (active) in [15] and 1.58 µM (inactive) in assay [16].
`O=C(O)C(=C\c1ccc2c(c1)OCO2)/C(=C/c1ccc2c(c1)OCO2)C(=O)O`: the GI50 in [1], in [3], in assay [4], in assay [5], in [6] and in [7] was > 100 µM (inactive) each time. Also, the GI50 in assay [8], in [17], in assay [10], in assay [11], in [12] and in assay [13] was > 100 µM (inactive) in each case. Further, the GI50 in assay [15] and in [16] was > 100 µM (inactive) in each case.
With `Cn1c(=O)c2[nH]c(/N=N/N3CCN(CCO)CC3)nc2n(C)c1=O`, the GI50 in assay [1] is 67 µM (inactive); in assay [2] it was > 100 µM (inactive); in [3], > 100 µM (inactive); in assay [4] it was > 100 µM (inactive); in assay [5], > 100 µM (inactive); in assay [6], > 100 µM (inactive). Further, the GI50 is > 100 µM (inactive) in assay [7]; 18.8 µM (inactive) in assay [8]; > 100 µM (inactive) in assay [9]; > 100 µM (inactive) in assay [10]; > 100 µM (inactive) in [11]; > 100 µM (inactive) in assay [12]. Besides, the GI50 in assay [13], in assay [14], in assay [15] and in assay [16] was > 100 µM (inactive) each time.
As for `Oc1cccc(-c2nc3ccccc3s2)c1`, the GI50 was 21.9 µM (inactive) in [1]; 17.6 µM (inactive) in [2]; 2.99 µM (inactive) in [3]; 10.2 µM (inactive) in [4]; 25.5 µM (inactive) in assay [6]; 30.7 µM (inactive) in [7]. In addition, the GI50 in assay [8] is 33 µM (inactive); in assay [9] it was 22.1 µM (inactive); in assay [10], 14.7 µM (inactive); in assay [11], 27.8 µM (inactive); in assay [12], 57.9 µM (inactive); in [13], 23.2 µM (inactive). Moreover, the GI50 is 5.69 µM (inactive) in [14], 29.2 µM (inactive) in assay [15] and 15.5 µM (inactive) in [16].
Take `FC(F)(F)c1ccc(/N=N/N2CCCC2)cc1`: the GI50 in assay [2] is > 100 µM (inactive); in assay [3], > 100 µM (inactive); in assay [4] it was 23.6 µM (inactive); in [5], 42.6 µM (inactive); in assay [6] it was 80 µM (inactive); in assay [7], > 100 µM (inactive). The GI50 in assay [8] was > 100 µM (inactive); in assay [17], > 100 µM (inactive); in [9] it was > 100 µM (inactive); in assay [10] it was 5.31 µM (inactive); in assay [11], > 100 µM (inactive); in assay [12] it was > 100 µM (inactive). In addition, the GI50 was > 100 µM (inactive) in assay [13], > 100 µM (inactive) in assay [14], 68.7 µM (inactive) in [15] and > 100 µM (inactive) in assay [16].
For the molecule `NN=C(S)Nc1cccc(Cl)c1`, the GI50 in assay [1] is 53.5 µM (inactive); in assay [2], 95.9 µM (inactive); in [3] it was > 100 µM (inactive); in [4] it was 74.8 µM (inactive); in assay [5] it was > 100 µM (inactive); in [7], 83.6 µM (inactive). Further, the GI50 in assay [8] was > 100 µM (inactive); in [17], 64.7 µM (inactive); in assay [9] it was > 100 µM (inactive); in assay [10], 82 µM (inactive); in assay [11], > 100 µM (inactive); in assay [12], > 100 µM (inactive). The GI50 was 48.2 µM (inactive) in [13], > 100 µM (inactive) in assay [14] and > 100 µM (inactive) in [16].
Consider `CC(C)N(C(=O)C1(O)c2ccccc2C=Cc2ccccc21)C(C)C`, for which the GI50 in [1] is 18.2 µM (inactive); in assay [2], 12.5 µM (inactive); in [3] it was 17.6 µM (inactive); in assay [4] it was 16.6 µM (inactive); in assay [5], 16.3 µM (inactive); in assay [7], 30.1 µM (inactive). Also, the GI50 is 18.8 µM (inactive) in assay [8]; 15.7 µM (inactive) in assay [9]; 22.9 µM (inactive) in assay [10]; 19.3 µM (inactive) in [11]; 17.3 µM (inactive) in assay [12]; 15.5 µM (inactive) in assay [13]. The GI50 in assay [14] is 16.6 µM (inactive); in [15], 23.3 µM (inactive); in [16] it was 45.9 µM (inactive).
Consider `CC1=NC(=O)CNN1C1=NNC2(C(=O)N1)c1ccccc1-c1ccccc12`, for which the GI50 in assay [1], in assay [2], in assay [3], in assay [5], in assay [6] and in assay [7] was > 100 µM (inactive) in each case. In addition, the GI50 in assay [8], in [17], in assay [9], in assay [11], in [12] and in assay [13] was > 100 µM (inactive) throughout. Besides, the GI50 in [14] was > 100 µM (inactive); in [15], 55 µM (inactive); in [16] it was 23.5 µM (inactive).
As to `N#CCCN(CCN(CCC#N)C(=O)Nc1ccccc1)C(=O)Nc1ccccc1`, the GI50 is 72.6 µM (inactive) in [1]; 32.3 µM (inactive) in assay [2]; > 100 µM (inactive) in assay [3]; > 100 µM (inactive) in assay [4]; > 100 µM (inactive) in [5]; 37.6 µM (inactive) in assay [6]. Moreover, the GI50 in assay [8] was 31 µM (inactive); in [17], > 100 µM (inactive); in assay [9], > 100 µM (inactive); in assay [11], > 100 µM (inactive); in assay [12] it was > 100 µM (inactive); in assay [13], 69.3 µM (inactive). In addition, the GI50 was 90.8 µM (inactive) in assay [14], > 100 µM (inactive) in [15] and 33.8 µM (inactive) in [16].
Regarding `CC1(C)[C@H](C(=O)O)N2C(=O)[C@@H](NS(=O)(=O)c3ccc([N+](=O)[O-])cc3)[C@H]2S1(=O)=O`, the GI50 in assay [1], in assay [2], in assay [3], in [4], in assay [5] and in assay [6] was > 100 µM (inactive) throughout. The GI50 in assay [7], in assay [8], in assay [17], in assay [9], in assay [10] and in assay [11] was > 100 µM (inactive) in each case. Besides, the GI50 in assay [12], in assay [13], in [14] and in [16] was > 100 µM (inactive) each time.
